In patent publication US20160281089A1, “PREVENTION OF VIRAL INFECTIVITY” (priority 2005, published 2016):

Key:
HIV virions = experiment: ODN-mediated cleavage of viral RNA in intact HIV virions (real-time PCR, RT-PCR, agarose gel); format: biochemical; conditions: 0.5 μM ODN, 6 hours; for amount of undigested viral RNA (real-time PCR, primers covering PPT region): intact HIV virions, RPMI medium
SFFV [1] = experiment: NIH 3T3 cells infected with ODN-pretreated SFFV; format: cell-based; conditions: three days post-infection, real-time RT-PCR
Description: As next step we investigated the antiviral effect of ODNs by testing pre-treated virions for residual infectivity as has been described before for HIV particles. SFFV particles were pretreated with ODN M or its variants and used to infect NIH 3T3 cells. After three days RNA was extracted from infected cells and from the supernatants and SFFV was quantified by real-time RT-PCR and analysis of amplification products (FIG. 9b).
b. NIH 3T3 cells were infected with SFFV pretreated with various ODNs. After three days the cells and supernatants were harvested and analyzed for SFFV RNA levels by quantitative real time RT-PCR (top) and RT-PCR (bottom) using GAPDH for comparison.

SFFV [2] = experiment: Treatment of 5-day-SFFV-infected mice, plasma SFFV RNA by real-time RT-PCR; format: in vivo
Description: SFFV replicates to high titers in mice, whereby the spleen is a virus-shedding reservoir. The virus stock is recovered from spleen homogenates after full-blown disease, at about day 20 post infection (pi). The clarified supernatant contains around 2×10^5 focus forming units (FFU) per mil. Infection was normally performed by intravenous (iv) injection of 4×10^3 SFFV. After 5 days the blood was recovered (100 microliters) for detection of the viral RNA. The equivalent of 0.05 microliters was enough for RNA detection by 40 cycles. One FFU corresponds to about 6×10^4 RNA copies or 3×10^4 virus particles.
A number of experiments were carried out to evaluate the effect of ODNs on the SFFV mouse model. We treated 5-day-SFFV-infected mice (thick arrow) with ODN M (triangle) and measured the plasma RNA levels 4 hours after the in vivo therapy by real-time RT-PCR (FIG. 10a.1). In a second experiment we isolated the plasma of 5-day-SFFV-infected mice and treated it ex vivo with ODN M for 4 hours (FIG. 10a.2). In the third experiment we isolated uninfected plasma, incubated it ex vivo with ODN M for 2 hours followed by the addition of SFFV for 4 more hours (FIG. 10a.3). Finally we incubated ODN M and SFFV together in normal mouse plasma ex vivo for 4 hours (FIG. 10a.4).
To elucidate further the antiviral effect of ODN M in vivo we set up different therapeutic regimens. We infected mice with SFFV and then treated them 5 days later twice at an interval of two hours with either ODN M (1 mg), asPPT, ODN A as control, or PBS. The RNA was extracted 4, 8 and 16 hours later for PCR analysis (FIG. 10b.1). The viral RNA decreased approximately 6-fold in the plasma and started to slowly increase again 16 hours post-therapy.
In the next study, we used a single injection as treatment protocol and assessed the antiviral effect of both ODN M and asPPT in a short time-course. Plasma was taken from mice at 0.5, 1, 2, and 4 hours after the single treatment (FIG. 10b.2). A strong decrease of the number of SFFV RNA copies was detectable 4 hours after treatment. […] We conclude from FIG. 10b.2 that a single injection is sufficient to decrease the number of RNA copies by approximately 6-fold 4 hours after the beginning of the therapy.
In order to test, whether the SFFV titer increases again after ODN M-treatment, and whether it remains sensitive for ODN M, we treated 5-day-SFFV-infected mice at 3 days intervals with a double dose within 2 hours intervals. Plasma was taken before and 4 hours after treatment and assessed for viral RNA levels (FIG. 10b.3). ODN M exerted a strong antiviral effect with a reduction of RNA copies of 6-fold at day 0 compared with the control. At day 3, the effect is even stronger with 8-fold decrease of the SFFV RNA level.
To obtain a more continuous effect of ODN M and asPPT on SFFV replication we treated the SFFV-infected mice every 12 hours (FIG. 10b.4). […] The lack of response is in accordance with our previous in vitro studies on the sequence-specificity of the ODN A.
PCR was performed as indicated. 1. Mice infected with 200 μl containing 4×10^3 FFU SFFV for 5 days were treated i.v. with ODN M (1 mg corresponding to about 20 μM ODN M in the blood of a mouse) or PBS 4 hours post-treatment, plasma (100 μl) was recovered and analyzed by real time RT-PCR for SFFV RNA. 2. Plasma from a 5-day-SFFV-infected mouse was recovered and 100 μl were treated with ODN M (20 μM) for 4 hours at 37° C. ex vivo and then analyzed. 3. Plasma from a mock-infected mouse was treated with ODN M (20 μM) for 2 hours and then treated with 4×10^3 FFU in 20 μl for 4 hours. 4. Plasma from mock-infected mice was incubated with a combination of SFFV (4×10^3 FFU in 20 μl) and ODN M (20 μM) for 4 hours and then analyzed. The RNA levels were determined by real-time RT-PCR in the four experimental scenarios and are shown to the right.
b. Effect of ODN treatment following SFFV-infection in vivo. […]

SFFV [3] = experiment: Prophylactic SFFV mouse model: virions pre-incubated with ODNs, injected i.p., then i.v. treatments; format: in vivo, mice
Method: Next we evaluated the prophylactic effect of ODN M on SFFV replication. For this we established 5 groups of 5 mice each. We pre-incubated SFFV with different ODNs or PBS for 2 hours and then injected the two together intraperitoneally at time 0. Then the mice were treated at 2, 4, and 24 hours post-infection by i.v. route. After 5 days, plasma from the mice was analyzed for viral RNA levels. […] A blood smear of the mice at day 64 post-infection was analyzed by Giemsa staining.
a. SFFV virions pre-treated with ODNs for 2 hours were injected i.p. into mice. Subsequent treatments were at 2, 4 and 24 h post infection. 5 groups of 5 mice each were used: negative control (1), infection with PBS (2), ODN M (3), or ODN A treatment (4) and mock-infection with ODN M treatment (5). Bleeding was performed five days post-infection for analysis of the viral RNA. The relative RNA levels standardized to group 2 of fully infected mice (bars) as well as RT-PCR products of the individual mice (gel analysis) are shown.

SFFV [4] = experiment: Early i.v. therapy 2, 6 and 10 hours after SFFV infection of mice; format: in vivo; conditions: i.v. treatment 2, 6 and 10 hours after infection; for establishment of SFFV infection (PCR of blood samples): whole period tested
Method: In another experimental setting we assessed the effect of an i.v. therapy early after infection. We infected mice with SFFV and treated them 2, 6, and 10 hours later with ODN M, asPPT or PBS.
c. Mice infected with SFFV (4×10^2 FFU) i.v. received triple-treatments with ODNs at 2, 6 and 10 hours post-infection. Real-time RT-PCR analysis (graph) and RT-PCR (gel analysis) was performed with RNA from plasma beginning at day 5 and at the days indicated.

[5] = treated every 12 hours, up to 60 hours
[6] = SFFV pre-incubated 2 hours, i.p., i.v. treatments at 2, 4, 24 hours, day 5

Sequence	amount of undigested viral RNA (real-time PCR, primers covering PPT region) (HIV virions)	SFFV RNA in infected cells and supernatant (SFFV [1])	decrease of SFFV RNA levels (plateau) (SFFV [2]; [5])	viral infectivity in the body after pretreatment of the virus (SFFV [3]; pretreatment in a small test tube 1 to 4 hours, then infection of the mouse)	health of infected mice (spleen enlargement in mock-treated) (SFFV [4])	establishment of SFFV infection (PCR of blood samples) (SFFV [4])	cDNA production in virions (PCR with ODN A- and viral cDNA-specific primers) (HIV virions; virions containing monodeoxynucleotides)	total viral RNA by agarose gel electrophoresis (HIV virions; intact virions, compared to control ODNs)	effect on viral replication (SFFV [2]; double dose at 3 days intervals)	effect on decrease of the RNA level (SFFV [2]; [5])	reduction in RNA expression level (SFFV [3]; [6]) [%]	reduction of RNA copies compared with the control (SFFV [2]; double dose within 2 hours, day 0, 4 hours after treatment) [fold]	decrease of the SFFV RNA level (SFFV [2]; double dose within 2 hours, day 3) [fold]	antiviral effect compared with asPPT (SFFV [2]; single injection, 2 hours after beginning of therapy)	decrease of number of SFFV RNA copies (SFFV [2]; single injection, 4 hours after beginning of therapy)	decrease of viral RNA in the plasma (SFFV [2]; treated twice at an interval of two hours, 1 mg, RNA at 4, 8, 16 hours)	decrease of plasma RNA levels compared to PBS control mice (SFFV [3]; [6]) [fold]	blood smear, Giemsa staining (SFFV [3]; day 64 post-infection)
CCCTTCCAGTCCCCCCTTTTCTTTT (chemistry not given here) [asPPT, single-stranded antisense PPT of HIV, lacks the passenger strand and the linker]	less efficient cleavage of the viral RNA	clearly less efficient	~5 fold	completely abrogate viral infectivity	healthy	prevented the establishment of the SFFV-infection												
TTTTCTTTTGGGGGGTTTGGTTGGGTTTTCCCTTCCAGTCCCCCCTTTTCTTTT (phosphorothioate linkages, further chemistry not given here) [ODN A, 25 mer antisense and 25 mer passenger strand connected by T4, phosphorothioated at each end and in linker, targeted to extended PPT of HIV-1]	significant decrease in the amount of amplification product	clearly less efficient					led to cDNA production starting with ODN A	significant reduction of the viral RNA	no effect on viral replication	no significant effect	30							
TCTTTTTGGGGGGTTTGTTTGTTTTTTCTTTCATTCCCCCCTTTTTCT (chemistry not given here) [ODN M, 22-mer antisense and 22-mer second strand connected by T4, targeted to extended PPT of SFFV]		suppressed viral replication	about 10 fold		healthy	prevented the establishment of the SFFV-infection						6	8	stronger than that of asPPT	approximately 6 fold	approximately 6 fold	5	normal blood cell population
